The record followed here is ChEMBL document CHEMBL1201862, “PubChem BioAssay data set” (2004).

In data set [1] the target is Cytochrome P450 2C9 (Homo sapiens, UniProt P11712).
The target of data set [2] is T1, Cytochrome P450 1A2 (Homo sapiens, UniProt P05177).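 Note: PubChem cytochrome P450 panel assay, CYP1A2 panel member.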
T1 sequence (P05177 whole entry): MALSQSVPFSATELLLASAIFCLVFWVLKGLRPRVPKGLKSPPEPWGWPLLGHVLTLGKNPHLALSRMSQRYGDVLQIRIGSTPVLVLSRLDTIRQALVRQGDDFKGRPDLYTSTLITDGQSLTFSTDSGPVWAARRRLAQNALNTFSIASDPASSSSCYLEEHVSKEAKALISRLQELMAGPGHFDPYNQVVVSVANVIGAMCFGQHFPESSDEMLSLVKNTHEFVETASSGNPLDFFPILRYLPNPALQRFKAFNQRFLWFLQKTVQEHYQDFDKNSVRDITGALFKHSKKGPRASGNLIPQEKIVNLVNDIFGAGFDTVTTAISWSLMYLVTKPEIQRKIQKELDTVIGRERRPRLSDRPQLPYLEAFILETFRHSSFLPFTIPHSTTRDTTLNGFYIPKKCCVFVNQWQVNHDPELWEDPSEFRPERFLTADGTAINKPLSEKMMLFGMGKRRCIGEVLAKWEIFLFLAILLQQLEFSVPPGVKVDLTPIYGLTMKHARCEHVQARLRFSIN

The nature of data set [3]: Trypanosoma cruzi growth suppression in host cells – NIH3T3 host cells, beta-gal luminescence, confirmation (AID 2044).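 Note: intracellular parasites grown in NIH/3T3 mouse fibroblasts as host cells; luminescent beta-galactosidase reporter signal from transgenic T. cruzi replicating inside host cells; inhibitors lower the luminescence signal.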 The class given is functional, cell-based.
Data set [4] in a line: NIH3T3 cell viability loss – ATP luminescence, mouse fibroblasts, counter-screen, dose response (AID 2010).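 Note: cells exposed to compound for about 90 hours before reading.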 The class given is functional, cell-based.
Data set [5] deals with Cytochrome P450 2C19 (Homo sapiens, UniProt P33261). As to the kind of experiment: Cytochrome panel assay with activity outcomes. Panel member name: p450-cyp2c19 Compounds with AC50 equal or less than 10 uM are considered active. Type of data set: functional.
Data set [6] addresses Cytochrome P450 3A4 (Homo sapiens, UniProt P08684).

Calls of active or inactive are those of the source. Bounds are passed on as bounds.

Sequence of Cytochrome P450 3A4 (P08684 whole entry): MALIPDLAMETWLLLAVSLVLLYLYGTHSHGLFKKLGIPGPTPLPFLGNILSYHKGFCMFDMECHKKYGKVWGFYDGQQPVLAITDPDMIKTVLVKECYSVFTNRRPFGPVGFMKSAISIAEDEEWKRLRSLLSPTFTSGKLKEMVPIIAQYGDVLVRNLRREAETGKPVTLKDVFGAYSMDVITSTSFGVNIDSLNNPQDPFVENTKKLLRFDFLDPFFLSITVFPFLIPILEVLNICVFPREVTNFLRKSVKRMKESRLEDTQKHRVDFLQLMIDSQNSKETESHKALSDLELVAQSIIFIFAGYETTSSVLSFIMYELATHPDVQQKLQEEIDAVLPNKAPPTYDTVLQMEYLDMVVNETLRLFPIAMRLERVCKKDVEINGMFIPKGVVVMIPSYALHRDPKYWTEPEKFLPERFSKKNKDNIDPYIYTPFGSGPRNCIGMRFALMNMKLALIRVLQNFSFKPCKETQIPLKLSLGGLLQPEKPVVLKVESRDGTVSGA
Sequence of Cytochrome P450 2C9 (P11712 whole entry): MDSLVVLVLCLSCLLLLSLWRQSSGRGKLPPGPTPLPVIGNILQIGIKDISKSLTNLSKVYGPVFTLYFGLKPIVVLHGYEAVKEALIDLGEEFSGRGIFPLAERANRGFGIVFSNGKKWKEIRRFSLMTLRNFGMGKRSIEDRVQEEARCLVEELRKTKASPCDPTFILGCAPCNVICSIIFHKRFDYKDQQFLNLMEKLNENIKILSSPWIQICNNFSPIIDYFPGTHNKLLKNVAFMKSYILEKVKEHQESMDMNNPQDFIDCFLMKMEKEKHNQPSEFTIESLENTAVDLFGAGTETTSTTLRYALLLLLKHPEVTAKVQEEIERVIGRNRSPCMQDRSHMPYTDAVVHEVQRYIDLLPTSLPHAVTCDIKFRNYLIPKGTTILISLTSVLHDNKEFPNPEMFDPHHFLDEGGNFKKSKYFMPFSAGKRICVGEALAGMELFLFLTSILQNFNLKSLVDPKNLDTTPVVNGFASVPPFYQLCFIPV
Sequence of Cytochrome P450 2C19 (P33261 whole entry): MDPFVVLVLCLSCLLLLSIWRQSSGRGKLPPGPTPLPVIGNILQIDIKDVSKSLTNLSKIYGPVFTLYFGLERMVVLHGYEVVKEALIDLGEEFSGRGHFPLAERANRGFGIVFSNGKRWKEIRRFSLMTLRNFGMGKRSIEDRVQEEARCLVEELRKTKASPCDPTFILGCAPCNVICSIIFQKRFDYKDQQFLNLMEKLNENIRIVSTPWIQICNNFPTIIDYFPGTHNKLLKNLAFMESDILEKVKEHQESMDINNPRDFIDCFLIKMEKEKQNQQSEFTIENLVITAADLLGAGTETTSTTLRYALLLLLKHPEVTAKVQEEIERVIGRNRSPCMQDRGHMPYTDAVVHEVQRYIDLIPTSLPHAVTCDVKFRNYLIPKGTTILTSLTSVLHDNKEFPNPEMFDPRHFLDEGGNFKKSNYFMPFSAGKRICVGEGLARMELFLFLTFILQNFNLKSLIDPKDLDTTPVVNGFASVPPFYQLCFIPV

As usually defined, the AC50 is the midpoint of the concentration-response curve, whichever way the signal moves. Regarding `O=C(O)c1ccccc1-c1ccccc1C(=O)Nc1ccc2c(c1)Cc1ccccc1-2`, the concentration at half-maximal activity (AC50) in data set [1] is 3.16 µM (inconclusive). Turning to `CCc1cc2cc(C)c(C)cc2nc1SCC(=O)NNC(=O)c1ccco1`, the AC50 in data set [2] was 0.794 µM (inconclusive). For orientation: EC50 means the concentration that produces a half-maximal response. Turning to `COc1ccccc1C(=O)Nn1c(C2CCC2)nc2ccccc2c1=O`, the results for the EC50 in data set [3] and in data set [4] were 2.13 µM (active) and > 30 µM (not active), respectively. In the case of `C[C@@]12CC[C@H]3[C@@H](CC[C@@H]4C[C@H](O)CC[C@]43C)[C@H]1CC[C@H]2O`, the AC50 in data set [5] (read-out: AC50) is 31.6 µM (inconclusive); in data set [2], 15.8 µM (inconclusive); in data set [6] it was 10 µM (inconclusive); in data set [1], 25.1 µM (inconclusive). For `Cc1cnc(CNc2ccnc(-c3ccoc3)n2)cn1`, the AC50 in data set [6] is 25.1 µM (inconclusive).

Take `O=C(/C=C\NCC(=O)c1ccccc1)c1ccccc1`: the AC50 in data set [1] was 1.78 µM (inconclusive). For `COc1ccc(C2NC(=O)c3sc4nc(C)c(C(C)=O)c(-c5ccc(Cl)cc5)c4c3N2)cc1` (centres undefined), in data set [5] (read-out: AC50), the AC50 was 2 µM (inconclusive). As to `CCc1c(C)nc2c(-c3ccccc3)c(C)nn2c1Nc1ccc(NC(C)=O)cc1`, the EC50 was 1.29 µM (active) in data set [3] and > 60 µM (not active) in data set [4]. With `O=C1OC(OC2CCCCC2)(c2ccccc2)c2ccccc21` (centres undefined), the AC50 in data set [6] and in data set [1] was 15.8 µM (inconclusive) each time. Regarding `CCC(=O)Nc1cccc(NC(=O)CSc2nnnn2Cc2ccccc2)c1`, the AC50 in data set [6] is 3.55 µM (inconclusive); in data set [1], 5.01 µM (inconclusive). As to `FC(F)(F)c1ccccc1-c1ccc2ncnc(NCc3cccs3)c2c1`, in data set [1], the half-maximal activity concentration (AC50) was 1 µM (inconclusive).

As for `CCOC(=O)Cn1cc(C(=O)c2ccccc2F)c2ccccc21`, the half-maximal activity concentration (AC50) in data set [6] was 35.5 µM (inconclusive).

`Clc1ccccc1OCCCCn1ccnc1`: the EC50 is 2.05 µM (active) in data set [3] and > 60 µM (not active) in data set [4]. With `Nc1ccccc1/N=N\c1c(S(=O)(=O)O)cc2cc(S(=O)(=O)O)cc(O)c2c1O`, the AC50 in data set [2] is 6.31 µM (inconclusive).

In the case of `CCOc1ccc(C(F)(F)F)cc1NC(=O)c1ccc(OC)c([N+](=O)[O-])c1`, the AC50 is 0.282 µM (inconclusive) in data set [5] (read-out: AC50) and 22.4 µM (inconclusive) in data set [6]. Regarding `O=C(Nc1ccccc1)N1CC2(CCN(C(=O)c3ccncc3)CC2)C1`, the AC50 in data set [2] is 10 µM (inconclusive); in data set [6] it was 25.1 µM (inconclusive). Turning to `COCCNC(=O)c1onc(CSc2ccccc2F)c1C(=O)O`, the AC50 was 0.141 µM (inconclusive) in data set [5] (read-out: AC50) and 35.5 µM (inconclusive) in data set [6].

As for `COc1ccccc1NC(=O)Cn1nnc(-c2ccccc2NC(=O)c2cc3ccccc3oc2=O)n1`, the AC50 in data set [2] is 15.8 µM (inconclusive); in data set [1], 0.794 µM (inconclusive).

With `O=C(O)c1ccccc1N[C@H](c1ccccc1)c1ccc2cccnc2c1O`, the figures for the AC50 in data set [2] and in data set [1] were 1.58 µM (inconclusive) and 5.01 µM (inconclusive), respectively. On to `CN1CCN(C(=O)COc2ccc(S(=O)(=O)N(C)Cc3ccccc3)cc2)CC1`, for which the EC50 in data set [3] is 0.189 µM (active); in data set [4], > 60 µM (not active). With `C[C@@H](C(=O)NCc1cccc2ccccc12)[C@H]1C[C@]1(C)[C@H](NC(=O)OCc1ccccc1)c1ccccc1`, the AC50 in data set [2] is 25.1 µM (inconclusive). The same measure, in the same setting: the result for `Oc1ccc2c3c1O[C@H]1c4c(c5ccccc5n4Cc4ccccc4)C[C@]4(O)[C@H](C2)N(CC2CC2)CC[C@@]314` reads 31.6 µM (inconclusive).

Consider `N=C(N)SCc1ccc(Cl)cc1Cl.O=[N+]([O-])c1c(O)c(Cl)cc(Cl)c1Cl`, for which the half-maximal activity concentration (AC50) in data set [1] was 7.94 µM (inconclusive). For `O=c1cnc2cnc(Nc3ccccc3)nc2n1CCc1ccccc1`, the AC50 in data set [1] is 0.251 µM (inconclusive). On to `O=c1c(-c2ccc(Cl)cc2)nc2cncnc2n1Cc1ccccc1Cl`, for which the AC50 in data set [2] is 1.26 µM (inconclusive); in data set [6] it was 12.6 µM (inconclusive).

Turning to `O=C(O)COc1ccc(-c2nccc(-c3cccs3)n2)cc1`, the values for the concentration at half-maximal activity (AC50) in data set [5] (read-out: AC50) and in data set [2] were 31.6 µM (inconclusive) and 15.8 µM (inconclusive), respectively.

As to `CCOc1ncnc2c1oc1nc(CC(C)C)c3c(c12)CC(C)(C)OC3`, the AC50 in data set [5] (read-out: AC50) is 39.8 µM (inconclusive); in data set [2] it was 22.4 µM (inconclusive).

As to `O=C(Nc1cccc(-c2cn3cccnc3n2)c1)c1ccc(Br)o1`, the EC50 was 0.554 µM (active) in data set [3] and > 60 µM (not active) in data set [4]. Turning to `COc1cccc2cc3c(=O)oc4ccccc4c3nc12`, in data set [1], the half-maximal activity concentration (AC50) is 2.82 µM (inconclusive).

As to `COCC1C2CC[C@H]3C(OCc4ccc(F)cc4C(F)(F)F)OC[C@]4(C)[C@H]3C2=C(CN4C(=O)OC(C)(C)C)[C@H](C)C1COC` (some centres undefined), the AC50 in data set [5] (read-out: AC50) was 39.8 µM (inconclusive); in data set [2], 31.6 µM (inconclusive); in data set [1], 20 µM (inconclusive). Regarding `Cn1cc(-c2nc3cnc(Oc4ccccc4)nc3n(CCC#N)c2=O)c2ccccc21`, the AC50 is 3.16 µM (inconclusive) in data set [2] and 7.94 µM (inconclusive) in data set [6]. For `NC(=O)Cn1nc([N+](=O)[O-])nc1Oc1ccc(Br)cc1`, the EC50 in data set [3] is 0.174 µM (active); in data set [4] it was > 60 µM (not active).

For `Cc1c(Br)c([N+](=O)[O-])nn1C(C)C(=O)Nc1nccs1` (centres undefined), in data set [2], the concentration at half-maximal activity (AC50) is 22.4 µM (inconclusive).

Take `COc1cc(/C=C(\C#N)c2nc3ccccc3[nH]2)ccc1Oc1ccc([N+](=O)[O-])cn1`: the EC50 in data set [3] is 1.12 µM (active); in data set [4], > 30 µM (not active). Consider `CCCN(C/C=C\I)[C@@H]1CCc2ccc(O)cc2C1`, for which the AC50 in data set [2] and in data set [1] was 25.1 µM (inconclusive) throughout. Turning to `COc1cc2nncc(SCc3ccc(Cl)c(Cl)c3)c2cc1OC`, the AC50 is 0.794 µM (inconclusive) in data set [2] and 2 µM (inconclusive) in data set [6]. For `Cc1ccc(Nc2nc(-c3sc(NC(=O)c4cccc(Cl)c4)nc3C)cs2)cc1`, in that order: 14.1 µM (inconclusive) and 11.2 µM (inconclusive). `O=C(Nc1cc(C(F)(F)F)ccc1-n1cncn1)c1ccc(-c2ccccc2)cc1`: the EC50 in data set [3] was 0.489 µM (active); in data set [4] it was > 60 µM (not active). For `O=[N+]([O-])c1ccc(S(=O)(=O)N2CCN(c3ccc(N4CCOCC4)nn3)CC2)cc1`, in that order: 1.12 µM (active) and > 60 µM (not active). Regarding `C=CC[C@@H]1C=C[C@@H](O/N=C\c2ccc(C(=O)N3[C@H](c4ccc(C)cc4)[C@@H](C)CC[C@H]3C(=O)OC)cc2)[C@@H](CO)O1`, the AC50 in data set [5] (read-out: AC50) is 3.16 µM (inconclusive). With `COC(=O)[C@@]1(Cc2ccc(F)cc2)[C@H]2c3cc(C(=O)N4CCCC4)n(Cc4ccccc4)c3C[C@H]2CN1C(=O)c1ccccc1`, the half-maximal activity concentration (AC50) in data set [5] (read-out: AC50) was 31.6 µM (inconclusive); in data set [2], 20 µM (inconclusive). Consider `CC(C)C12CN3CC(C(C)C)(CN(C1)C3c1cccnc1)C2=O` (centres undefined), for which the AC50 in data set [2] is 25.1 µM (inconclusive); in data set [1] it was 3.16 µM (inconclusive). Turning to `O=C(CSc1nc2ccccc2o1)NC(=O)NCc1ccccc1`, the concentration at half-maximal activity (AC50) in data set [6] is 22.4 µM (inconclusive). For the compound `Cc1cccc(C)c1NC(=O)C[S+]([O-])CC(=O)Nc1ccc(F)cc1F` (centres undefined), the AC50 was 14.1 µM (inconclusive) in data set [6] and 39.8 µM (inconclusive) in data set [1]. Take `O=S(=O)(O)c1cc(/N=[N+](\[O-])c2cc(S(=O)(=O)O)c3ccccc3c2)cc2ccccc12`: the AC50 was 3.98 µM (inconclusive) in data set [5] (read-out: AC50), 1.26 µM (inconclusive) in data set [2] and 7.94 µM (inconclusive) in data set [1]. In the case of `COc1ccccc1/C=C/C(=O)NCC(=O)N/N=C/c1ccccc1[N+](=O)[O-]`, the EC50 is 1.59 µM (active) in data set [3] and > 60 µM (not active) in data set [4]. For `CCOc1cc(/C=N/NC(=O)CNc2cccc(C)c2)ccc1OC(=O)c1ccccc1`, in data set [2], the AC50 is 14.1 µM (inconclusive).

Regarding `N#Cc1cc([N+](=O)[O-])ccc1Oc1cccc(/C=N/NC(=O)c2cccc(Cl)c2)c1`, the EC50 is 0.531 µM (active) in data set [3] and > 60 µM (inconclusive) in data set [4]. In the case of `CC1(C)Cc2ccccc2C(N/N=C/c2cccc(F)c2)=N1`, the AC50 in data set [5] (read-out: AC50) is 25.1 µM (inconclusive). For the compound `Cc1cccc(C)c1NC(=O)COc1cccc(/C=N/NC(=O)C(=O)NCc2ccccc2)c1`, the AC50 entry in data set [5] is “inconclusive”.

For the compound `CC[n+]1ccccc1C=Cc1ccc(N(C)C)cc1`, the EC50 was 0.572 µM (active) in data set [3] and > 60 µM (not active) in data set [4]. For `O=C(O)C1=CCCN(CCOC(c2ccc(C(F)(F)F)cc2)c2ccc(C(F)(F)F)cc2)C1`, the AC50 in data set [6] is 39.8 µM (inconclusive). With `CCN1CCC[C@@H](OC(=O)C(c2ccccc2)c2ccccc2)C1` [PIPERIDOLATE], the AC50 in data set [2] was 0.00126 µM (inconclusive).
